Patent publication US11401278B2, “Macrocyclic indole derivatives” (The Broad Institute, Inc., priority 2017, dated 2022)
Where a name gives a salt, the structure may show the parent alone. Read-outs that look alike come from different tables or passages of the source.

Assays:
SUDHL10 [1] = assay: Induction of cytotoxicity (Assay 6), SUDHL10; details: read-out: Cytotox SUDHL10 [M] (median) IC50, CellTiter-Glo, 5 hours, SUDHL10
SUDHL5 [2] = assay: Induction of cytotoxicity (Assay 6), SUDHL5; details: read-out: Cytotox SUDHL5 [M] (median) IC50, CellTiter-Glo, 5 hours, SUDHL5
SUDHL5 [3] = assay: Induction of caspase-3/7 activity (Assay 4), SUDHL5; format: cell-based; details: caspase-3/7 induction, median
Method: (§1) Cellular Assays Assay 4 Induction of Caspase-3/7 Activity Upon Treatment of Cells with Selected Compounds
(§2) The BH3-domain of MCL-1 sequesters pro-apoptotic proteins, thereby inhibiting apoptosis. In contrast, MCL-1 inhibitors are expected to antagonize this effect leading to an increase in apoptosis, which can be determined by measuring the activity of caspase-3/7.
(§3) The activity of caspase-3/7 was determined in DLBCL (Diffuse large B-cell lymphoma) cell lines (SUDHL5 and SUDHL10) upon treatment with different compounds, using the Caspase-Glo® 3/7 reagent from Promega (G8092).
(§4) Rim wells were excluded. The cells were incubated for 3 hours in a humidified incubator at 37° C.
(§5) For the evaluation of the results, the background measured with “medium-only” was subtracted from all other values. […] The Bella DRC Master Sheet was used to calculate EC50s, with fixed C0=1 and CI=plateau/max induction for the reference compound.

AMO-1 = assay: Antiproliferation assay (Assay 7), AMO-1; format: cell-based; details: CellTiter-Glo, several values per example, read-out: Antiproli AMO-1 [M] IC50
Method: (§6) Assessment of the Anti-Proliferative Effect of Compounds in Different Cell Lines
(§7) The impact of compounds on the proliferation of different cell lines was assessed using the CellTiter-Glo® Luminescent Cell Viability reagent from Promega (G7573).
(§8) In parallel, cells were plated in a reference (day 0) plate for time zero determination.
(§9) Rim wells were excluded. The cells were incubated for 72 hours in a humidified incubator at 37° C. The day 0 plate was measured by adding 30 μL/well of CTG solution (CellTiter-Glo® Luminescent Cell Viability reagent, Promega G7573) to time zero wells in the reference plate followed by a 10 minutes incubation and luminescence reading at 0.1 ms. using the PHERAstar FS microplate reader (BMG Labtech).
(§10) After 72 hours incubation, the treated plates were measured in the same way as the day 0 plate mentioned above.

SUDHL10 [4] = assay: Induction of caspase-3/7 activity (Assay 4), SUDHL10; format: cell-based; details: caspase-3/7 induction, median
Method: as §1, §2, §3, §4, §5

MCL-1 = MCL-1 (Homo sapiens (Human), UniProt Q07820, K194A/K197A/R201A); assay: Protein-protein interaction assay MCL-1/Noxa BH3 peptide (MCL-1 assay, TR-FRET); format: binding; details: MBP-MCL-1 / Noxa BH3 peptide, median
MCL-1, sequence (Q07820 whole entry K194A/K197A/R201A, looked up): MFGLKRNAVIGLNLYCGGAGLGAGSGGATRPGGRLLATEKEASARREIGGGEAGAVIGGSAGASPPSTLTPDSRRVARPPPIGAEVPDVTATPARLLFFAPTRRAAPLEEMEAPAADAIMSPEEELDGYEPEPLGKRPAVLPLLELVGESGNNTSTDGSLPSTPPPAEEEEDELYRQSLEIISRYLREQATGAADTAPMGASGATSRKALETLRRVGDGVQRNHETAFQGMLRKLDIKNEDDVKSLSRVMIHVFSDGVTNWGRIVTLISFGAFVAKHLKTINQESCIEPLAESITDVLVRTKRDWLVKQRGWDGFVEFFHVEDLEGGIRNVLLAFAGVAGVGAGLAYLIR
Method: Protein-Protein Interaction Assay: MCL-1/Noxa BH3 Peptide (MCL-1 Assay)
The dose-dependent inhibition by the compounds described in this invention of the interaction between MCL-1 and the BH3 domain of Noxa (both human) was determined using a steady state binding competition assay with time-resolved fluorescence energy transfer (TR-FRET) readout. For that purpose MCL-1 (amino acids 173-329, N-terminal fused to Maltose Binding Protein (MBP) SEQ ID 1) and a synthetic Noxa BH3-derived peptide of sequence Biotin-PEG2-PEG2-PAELEVE-Nva-ATQLRRFGDKLNFRQKLL-amide (SEQ ID 2) served as protein receptor and tracer ligand respectively. The MBP-MCL-1 was purchased from Beryllium (Bedford, Mass., USA). The expression and purification of this protein construct has been described elsewhere (DOI:10.1371/journal.pone.0125010). The Noxa BH3-derived peptide can be obtained from e.g. Biosyntan (Berlin, Germany).
In the assay 11 different concentrations of each compound (0.1 nM, 0.33 nM, 1.1 nM, 3.8 nM, 13 nM, 44 nM, 0.15 μM, 0.51 μM, 1.7 μM, 5.9 μM and 20 μM) were typically measured as duplicates in the same microtiter plate. For that, 100-fold concentrated DMSO solutions were prepared by serial dilutions (1:3.4) of a 2 mM stock solution in a clear, 384-well microtiter plate (Greiner Bio-One, Frickenhausen, Germany). From there, 50 nl were transferred in a dark test plate (Greiner Bio-One, Frickenhausen, Germany). The assay was initiated by addition of 2 μl of a 2.5-fold concentrated MBP-MCL-1 solution (usually for a 1 nM end concentration in 5 μl reaction volume) in aqueous assay buffer [50 mM Tris/HCl pH 7, 100 mM sodium chloride (NaCl), 50 mM potassium fluoride (KF), 0.005% Tween-20, 2 mM DTT, 0.1% bovine gamma globulin (BGG)] to the compounds in the assay plate. This was followed by a 10-minute incubation step at 22° C. for pre-equilibration of the putative complex between MBP-MCL-1 and the compounds. After that, 3 μl of a 1.67-fold concentrated solution (in assay buffer) consisting of Noxa BH3-derived peptide (1 nM end concentration) and TR-FRET detection reagents [1.67 nM anti-MBP-Eu cryptate and 1.67 nM streptavidin-XL665 (both from Cisbio Bioassays, Codolet, France)], were added.
The mixture was incubated in the dark for one hour at 22° C. and then overnight at 4° C. The formation of MCL-1/Noxa complexes was determined by measuring the resonance energy transfer of the anti-MBP-Eu-cryptate antibody to the streptavidin-XL665 present in the reaction. For that purpose, the fluorescence emission at 620 nm and 665 nm after excitation at 330-350 nm was measured in a TR-FRET measuring instrument, for instance a Rubystar or a Pherastar (both from BMG Lab Technologies, Offenburg, Germany) or a Viewlux (Perkin-Elmer). The ratio of the emission at 665 nm and at 622 nm was used as indicator of the amount of MCL-1/NOXA complexes present.
The resulting data (ratio) were normalized, taking 0% inhibition as the mean value of control measurements (usually 32 data points) where all reagents were included. In this case 50 nl DMSO were used instead of compounds. A 100% inhibition corresponded to the mean value of control measurements (usually 32 data points) where all reagents except MCL-1 were included. IC50 values were determined by regression analysis based on a 4 parameter equation (minimum, maximum, IC50, Hill; Y=Max+(Min−Max)/(1+(X/IC50)^HiII) using the Screener Software (Genedata).

HMC-1-8 = assay: Antiproliferation assay (Assay 7), HMC-1-8; format: cell-based; details: CellTiter-Glo, 72 hours, several values per example, read-out: Antiproli HMC-1-8 [M] IC50
Method: as §6, §7, §8, §9, §10

SUDHL5 [5] = assay: Antiproliferation assay (Assay 7), SUDHL5; format: cell-based; details: CellTiter-Glo, median, read-out: Antiproli SUDHL5 [M] (median) IC50
Method: as §6, §7, §8, §9, §10

MV-4-11 = assay: Antiproliferation assay (Assay 7), MV-4-11; format: cell-based; details: Homo sapiens, MV4-11, 72 h, CellTiter-Glo, several values per example, read-out: Antiproli MV-4-11 [M] IC50
Method: as §6, §7, §8, §9, §10

SMILES | EC50 (SUDHL5 [3]; 3 hours) [µM] | EC50 (SUDHL10 [4]; 3 hours) [µM] | IC50 (MCL-1) [µM] | IC50 (SUDHL5 [5]; 72 hours) [M] | EC50 (SUDHL5 [3]; Homo sapiens, SU-DHL-5, 3 h) [µM] | EC50 (SUDHL10 [4]; Homo sapiens, SU-DHL10, 3 h) [µM] | IC50 (MV-4-11) [M] | IC50 (SUDHL5 [5]; Homo sapiens, SU-DHL-5, 72 h) [M] | IC50 (SUDHL10 [1]) [M] | IC50 (SUDHL5 [2]) [M] | IC50 (AMO-1; 72 hours) [M] | IC50 (HMC-1-8) [M] | IC50 (SUDHL10 [1]; Homo sapiens, SU-DHL10, 5 h) [M] | IC50 (SUDHL5 [2]; Homo sapiens, SU-DHL-5, 5 h) [M] | IC50 (AMO-1; Homo sapiens, AMO1, 72 h) [M]
Cc1c2c(nn1C)CN(C)S(=O)(=O)CCCn1c(C(=O)O)c(CCCOc3cccc4ccccc34)c3cccc-2c31 (single isomer, unassigned; enantiomer 1) [Example 11, (+)-2,3,14-Trimethyl-7-[3-(1-naphthyloxy)propyl]-11,12,14,15-tetrahydro-2H,10H-pyrazolo[3′,4′:4,5][1,2,8]thiadiazacycloundecino[6,7,8-hi]indole-8-carboxylic acid 13,13-dioxide-N-ethylethanamine Salt (Enantiomer 1)] |  |  |  |  |  |  |  |  | 3.7e-06 | 1.6e-06 |  |  |  |  | 
CCc1c2c(nn1C)C(N1CCOCC1)CCN(C)S(=O)(=O)CCCn1c(C(=O)O)c(CCCOc3cccc4cc(F)ccc34)c3ccc(Cl)c-2c31 (single isomer, unassigned; enantiomer 1) [Example 70, (+)-4-chloro-3-ethyl-7-{3-[(6-fluoro-1-naphthyl)oxy]propyl}-2,14-dimethyl-17-(morpholin-4-yl)-11,12,14,15,16,17-hexahydro-2H,10H-pyrazolo[3′,4′:6,7][1,2,10]thiadiazacyclotridecino[8,9,10-hi]indole-8-carboxylic acid 13,13-dioxide trifluoroacetate salt (Enantiomer 1)] | 2.6 | 4.4 | 0.086 | 4e-06 |  |  |  |  | 4.7e-06 | 2.6e-06 | 7.3e-06 | 1.5e-05 |  |  | 
Cc1c2c(nn1C)CN(C)S(=O)(=O)CCCn1c(C(=O)O)c(CCCOc3cccc4ccccc34)c3cccc-2c31 (single isomer, unassigned; enantiomer 2) [Example 12, (−)-2,3,14-Trimethyl-7-[3-(1-naphthyloxy)propyl]-11,12,14,15-tetrahydro-2H,10H-pyrazolo[3′,4′:4,5][1,2,8]thiadiazacycloundecino[6,7,8-hi]indole-8-carboxylic acid 13,13-dioxide-N-ethylethanamine Salt (Enantiomer 2)] |  |  |  |  |  |  |  |  | 2.7e-05 | 2.7e-05 |  |  |  |  | 

Further lines, with some results ahead:

EC50 (SUDHL5 [3]; 3 hours) [µM] | EC50 (SUDHL10 [4]; 3 hours) [µM] | IC50 (MCL-1) [µM] | IC50 (SUDHL5 [5]; 72 hours) [M] | EC50 (SUDHL5 [3]; Homo sapiens, SU-DHL-5, 3 h) [µM] | EC50 (SUDHL10 [4]; Homo sapiens, SU-DHL10, 3 h) [µM] | IC50 (MV-4-11) [M] | IC50 (SUDHL5 [5]; Homo sapiens, SU-DHL-5, 72 h) [M] | SMILES | IC50 (SUDHL10 [1]) [M] | IC50 (SUDHL5 [2]) [M] | IC50 (AMO-1; 72 hours) [M] | IC50 (HMC-1-8) [M] | IC50 (SUDHL10 [1]; Homo sapiens, SU-DHL10, 5 h) [M] | IC50 (SUDHL5 [2]; Homo sapiens, SU-DHL-5, 5 h) [M] | IC50 (AMO-1; Homo sapiens, AMO1, 72 h) [M]
15 | 32 | 0.028 | 1.5e-05 |  |  |  |  | CCc1c2c(nn1C)CN(CC)S(=O)(=O)CCCn1c(C(=O)O)c(CCCOc3cccc4cc(F)ccc34)c3ccc(Cl)c-2c31 (single isomer, unassigned; enantiomer 2) [Example 58, (−)-4-chloro-3,14-diethyl-7-{3-[(6-fluoronaphthalen-1-yl)oxy]propyl}-2-methyl-13,13-dioxo-10,11,12,13,14,15-hexahydro-2H-13lambda^6-pyrazolo[3′,4′:4,5][1,2,8]thiadiazacycloundecino[6,7,8-hi]indole-8-carboxylic acid N-ethylethanamine Salt (Enantiomer 2)] |  | 1.2e-05 | > 3.3e-05 | 1.5e-05 |  |  | 
0.071 | 0.14 | 0.0008 | 1.3e-07 |  |  |  |  | CCc1c2c(nn1C)C(N1CCOCC1)CCN(C)S(=O)(=O)CCCn1c(C(=O)O)c(CCCOc3cccc4cc(F)ccc34)c3ccc(Cl)c-2c31 (single isomer, unassigned; enantiomer 2) [Example 71, (−)-4-chloro-3-ethyl-7-{3-[(6-fluoro-1-naphthyl)oxy]propyl}-2,14-dimethyl-17-(morpholin-4-yl)-11,12,14,15,16,17-hexahydro-2H,10H-pyrazolo[3′,4′:6,7][1,2,10]thiadiazacyclotridecino[8,9,10-hi]indole-8-carboxylic acid 13,13-dioxide trifluoroacetate salt (Enantiomer 2)] | 1.5e-07 | 1e-07 |  | 3.2e-06 |  |  | 
 |  | 0.0015 |  | 0.25 | 0.65 |  |  | CCc1c2c(nn1C)C(N1CCOCC1)CCN(C)S(=O)(=O)CCCn1c(C(=O)O)c(CCCOc3cccc4cc(F)ccc34)c3ccc(Cl)c-2c31 (racemic) [Example 69, (rac)-15-chloro-14-ethyl-1-(3-((6-fluoronaphthalen-1-yl)oxy)propyl)-8,13-dimethyl-11-(rac)-morpholino-5,6,9,10,11,13-hexahydro-4H,8H-pyrazolo[3′,4′:6,7][1]thia[2,10]diazacyclotridecino[8,9,10-hi]indole-2-carboxylic acid 7,7-dioxide (Mixture of Stereoisomers)] |  |  |  |  | 1.3e-06 | 3.1e-07 | 
 |  | 0.0018 |  | 0.42 | 0.61 | 8.39e-07 | 3.1e-07 | CCc1c2c(nn1C)CN(C)S(=O)(=O)CCCn1c(C(=O)O)c(CCCOc3cccc4cc(F)ccc34)c3ccc(Cl)c-2c31 (racemic) [Example 19, (rac)-13-Chloro-12-ethyl-1-(3-((6-fluoronaphthalen-1-yl)oxy)propyl)-8,11-dimethyl-5,6,9,11-tetrahydro-4H,8H-pyrazolo[3′,4′:4,5][1]thia[2,8]diazacycloundecino[6,7,8-hi]indole-2-carboxylic acid 7,7-dioxide] |  |  |  |  | 8.5e-07 | 4.6e-07 | 1.5e-06
